Each block holds one molecule with its values, some of them ahead of it. Where a SMILES comes first, the peptide text is derived from it. Where no end group is shown, it is not given here.
Assays:
[1] = tested on: mouse proteins (NOX1 system); details: ref [32]–[34]; cited from earlier work
human NOX1 = details: ref [32]–[34]; cited from earlier work
[2] = biological target: T1, tandem SH3 domains of human NOXO1 (Homo sapiens, UniProt Q8NFA2); assay: ITC, binding to human NOXO1 tandem SH3 domains; details: 18°C; for Kd: pH 7.4, titrated against tandem SH3 domains
T1 construct: was titrated against the tandem SH3 domains as well as against the individual SH3A and SH3B domains; GST (N, cleaved yes); made in house; host or cells: Escherichia coli BL21 STAR
T1 sequence (Q8NFA2 157-290 isoform Q8NFA2-4): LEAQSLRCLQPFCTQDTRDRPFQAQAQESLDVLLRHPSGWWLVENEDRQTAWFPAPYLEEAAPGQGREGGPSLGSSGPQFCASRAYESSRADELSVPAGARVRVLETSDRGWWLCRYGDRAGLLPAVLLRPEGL
Experimental: (§1) Complex formation between NOXO1, NOXA1 and p22^phox fragments or peptides were measured by isothermal titration calorimetry using a MicroCal VP-ITC calorimeter (MicroCal Inc., Northampton, USA). All proteins were dialysed against ITC buffer (150 mM NaCl, 1 mM DTT and 50 mM HEPES, pH 7.4) and performed at 18°C. All peptides were dissolved in ITC buffer. Typically, 20–40 µM of protein in the cell was titrated by stepwise injections of a total of 200–300 µM of the ligand. Heats of dilution were determined by titrating protein or peptide into ITC buffer and subtracted from the raw ITC data prior to analysis with the software, Origin version 7.0, assuming a single-site binding model. Data were averaged over three to five experiments.

[3] = tested on: interaction between NOXO1 and p22^phox; details: cited from earlier work
Text: In this study we provide evidence that the assembly of the NOX1 oxidase complex can be regulated through reversible protein-protein interactions. […] However, the inhibitory effect of the C-terminal tail is less pronounced in NOXO1 than in the homologous p47^phox subunit of the phagocytic oxidase, and may explain why the NOX1 system is capable of producing low levels of superoxide, in a constitutive ...

human NOXA1 SH3 = biological target: T2, human NOXA1 SH3 (Homo sapiens, UniProt Q86UR1); assay: ITC, binding to human NOXA1 SH3; details: 18°C, 150 mM NaCl, 1 mM DTT, 50 mM HEPES, pH 7.4, peptide in syringe, human NOXA1 SH3 in cell, averaged over three to five experiments, read-out: K (Kd)
T2 construct: GST (N, cleaved yes); made in house; host or cells: Escherichia coli BL21 STAR
T2 sequence (Q86UR1 399-458 limits assumed): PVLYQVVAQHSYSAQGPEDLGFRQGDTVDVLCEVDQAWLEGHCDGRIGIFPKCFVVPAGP
Experimental: as §1

Molecule: CCCCCCCCCCCCCC(=O)O[C@@H]1[C@@H](C)[C@@]2(O)[C@@H](C=C(CO)C[C@]3(O)C(=O)C(C)=C[C@@H]23)[C@@H]2C(C)(C)[C@]12OC(C)=O [PMA]
superoxide production with the mouse proteins [1]: a similar increase could not be observed with the mouse proteins
superoxide production by human NOX1 (human NOX1): increased

Molecule: CCCCC/C=C\C/C=C\C/C=C\C/C=C\CCCC(=O)O [arachidonic acid]
effect on interaction between NOXO1 and p22^phox [3]: could increase the interaction between NOXO1 and p22^phox

Molecule: TAPPPTVPTRPS [PeptideA-short]
Kd [2]: ~50 µM
Kd (human NOXA1 SH3): > 70 µM

Other lines, results leading:

Kd [2]: ~50 µM
Molecule: CC[C@H](C)[C@H](NC(=O)[C@H](C)NC(=O)CNC(=O)[C@@H]1CCCN1C(=O)[C@H](CO)NC(=O)[C@@H]1CCCN1C(=O)[C@H](CCCNC(=N)N)NC(=O)[C@@H](NC(=O)[C@@H]1CCCN1C(=O)[C@@H](NC(=O)[C@@H](NC(=O)[C@@H]1CCCN1C(=O)[C@@H]1CCCN1C(=O)[C@@H]1CCCN1C(=O)[C@H](C)NC(=O)[C@@H](N)[C@@H](C)O)[C@@H](C)O)C(C)C)[C@@H](C)O)C(=O)N[C@@H](CCC(N)=O)C(=O)N[C@@H](CO)C(=O)N[C@@H](CCCNC(=N)N)C(=O)N[C@@H](CS)C(=O)N[C@@H](CS)C(=O)N[C@H](C(=O)N[C@H](C(=O)N[C@H](C(=O)N[C@@H](CCCNC(=N)N)C(=O)N[C@@H](CCCNC(=N)N)C(=O)N[C@@H](C)C(=O)N[C@@H](CC(C)C)C(=O)N[C@@H](CCC(=O)O)C(=O)O)[C@@H](C)O)C(C)C)[C@@H](C)O [PeptideA] (H-TAPPPTVPTRPSPGAIQSRCCTVTRRALE-OH)

binding to the tandem SH3 domains (qualitative) ([2]; pH 7.4, data not shown): no binding was detected
Molecule: ERRPRRQGRPRG [peptide corresponding to basic region, residues 347–359, of C-terminal tail of human NOXO1]

— paper PMC2864300, “Regulation of NOXO1 Activity through Reversible Interactions with p22^phox and NOXA1” (PLoS ONE, 2010)
